Patent US7482008B1, “Human T cell reactive feline protein (TRFP) isolated from house dust and uses therefor” (Merck Patent GmbH, priority 1989, dated 2009)

What was measured:
Assay type in all cases: cell-based, human
[1] = test system: T cells from cat allergic patients; assay: T cell proliferation of TRFP-primed T cells from cat allergic patients (tritiated thymidine), Example 5 Part A; settings: for secondary T cell response of patient 131: FIG. 8
Experimental: Peripheral blood mononuclear cells (PBMC) were purified from 60 ml of heparinized blood from cat allergic patients. PBMC were subsequently treated as described below, although in individual cases, the length of time of cultivation with IL-2 and/or IL-4 and the specific peptides used for stimulation varied.
10 ml of PBMC from patient 131 at 10^6 /ml were cultured at 37° C. for 7 days in the presence of 5 μg purified TRFP/ml RPMI-1640 supplemented with 5% pooled human AB serum. Viable cells were purified by Ficoll-Hypaque centrifugation and cultured for three weeks at 5 units recombinant human IL-2/ml and 5 units recombinant human IL-4/ml. The resting T cells were then restimulated (secondary) with 5 μg TRFP at 2×10^5/ml in the presence of irradiated (3500 Rads) autologous PBMC at a concentration of 5×10^5/ml for three days, purified by Ficoll-Hypaque centrifugation and grown in 5 units IL-2 and 5 units IL-4/ml for two weeks. For assay, 2×10^4 resting secondary T cells were restimulated (tertiary) in the presence of 5×10^4 irradiated (3500 Rads) autologous PBMC or 2×10^4 transformed B cells (20,000 Rads) with various concentrations of allergens or their fragments in a volume of 200 microliters in a 96-well round bottom assay plates for 3 days. Each well then received 1 μCurie tritiated (methyl) thymidine for 16 hours. The counts incorporated were collected onto glass fiber filters and processed for liquid scintillation counting.
Antigens used: T cell reactive feline protein (TRFP), Hollister-Stier cat epithelium skin test reagent (CST), IPC ragweed pollen extract (pollen), and synthetic peptides derived from TRFP protein sequence (See FIGS. 6 and 7). Positive T cell proliferation is for these experiments was considered to be greater than 2.5 times the media control (T cells and antigen presenting cells alone).
Alternatively, PBMC were treated as follows: The primary stimulated cells were cultured in IL-2/IL-4 for two weeks. The resting T cells derived from this culture were tested in a secondary assay with some, but not all, of the above allergens. […] This type of epitope analysis has allowed the definition of T cell epitopes present in TRFP.

[2] = test system: T cells from cat-allergic patients; assay: Secondary proliferation assay of T cells primed with TRFP, peptide YXZ or peptide YZX
Experimental: The human cat allergic T cell response to peptides produced as above was examined. […] Peptide YZX was cleaved with thrombin as described in Example 25. Viable cells were then purified by Ficoll-Hypaque centrifugation and cultured for 2 additional weeks in RPMI-1640/5% AB serum containing 5 units recombinant human IL-2/ml and 5 units recombinant human IL-4/ml. The resting T cells were then tested in a secondary proliferation assay using a 96 well microtiter plate to assess T cell responses to various TRFP proteins or peptides (TRFP antigens). For assay, 2×10^4 resting T cells were cultured for 3 days at 37° C. in the presence of 2×10^4 autologous Epstein-Barr virus transformed B cells (25,000 Rads) as antigen presenting cells with various concentrations of antigen in 200 μl per well. Each well then received 1 μCi tritiated thymidine for 16 hours. The counts incorporated were collected onto glass fiber filters and processed for liquid scintillation counting. The stimulation indices for responses to each antigen were then calculated as the maximum CPM in response to antigen divided by the medium control CPM. A stimulation index of 2.5 was considered to be a positive T cell response. A summary of the results of 3 such experiments (patients 522, 519, and 386 is shown in FIG. 35a, FIG. 35b and FIG. 35c). As compared to the experiments shown in FIGS. 35a and 35b in the experiment shown in […], Fel-1.4 (chain 1, amino acid residues 6-17) was substituted for Fel-1.2 (chain 1, amino acid residues 1-17) and Fel-33.3 (chain 2, amino acid residues 26-40) was substituted for Fel-18 (chain 2, amino acid residues 23-48) in order to more closely resemble the constituent amino acids of peptides X and Z. In addition, in this experiment one peptide derived from the Y-Z junction of peptide YZX (amino acid residues 50-55 from chain 1 of TRFP and amino acid residues 14-19 from chain 2 of TRFP) and one peptide derived from the Z-X junction of peptide YZX (amino acid residues 34-39 of chain 2 of TRFP and amino acid residues 7-12 of chain 1 of TRFP) were synthesized and tested. These junction peptides were produced in order to determine whether these areas of peptide YZX produce a non-native epitope when formed in the peptide.

[3] = test system: PBMC from cat-allergic patients; assay: IL-2, IFN-gamma and IL-4 measurements by PCR in primary 36 hour PBMC culture; settings: Patient 409 primary 36 hour culture
Experimental: Peripheral blood mononuclear cells (PBMC) were purified from cat-allergic patients as described in Example 5. Five×10^6 PBMC were cultured at 2×10^6/ml for 36 hours in the presence of medium only, 20 μg purified TRFP/ml or 50 μg peptide/ml. The cells were then washed two times with phosphate buffered saline (PBS, pH 7.2) and lysed with 2 ml […] guanidinium isothiocyanate, 0.5% Sarkosyl, 5 mM sodium citrate, 0.1 M 2-mercaptoethanol, pH 7.0. The lysate was then forced through a 26 gauge needle to shear genomic DNA, and was layered onto a 2 ml cushion of 5.7 M CsCl, 0.01 M EDTA, pH 7.5 in diethylpyrocarbonate (DEPC)-treated water. The lysate was centrifuged at 35,000 RPM in a Beckman SW41 rotor for 18 hours at 20° C. The RNA pellet was resuspended in 0.4 ml TE (10 mM Tris, 1 mM EDTA), pH 7.5, 0.1% SDS, and then extracted three times with 0.5 ml phenol/0.2 ml chloroform. The RNA was then precipitated on dry ice with 2.5 volumes ice-cold ethanol, 1/10 volume 3 M sodium acetate, pH 5.2 in DEPC-treated water, rinsed once with 70% ethanol in DEPC-treated water, and dried. The RNA pellet was resuspended in 2 μl TE., pH 7.5 in DEPC-treated water.
Total cellular RNA was converted to cDNA using the Superscript kit (BRL, Bethesda, Md.). Two μl of RNA were added to one μl oligo (dT)12-18 (500 μg/ml) and 9 μl water. The sample was heated to 70° C. for 10 minutes and ice quenched. Four μl 5× buffer were added to the sample along with 2 μl 0.1 M DTT and 1 μl dNTP mix (10 mM each, dATP, dCTP, dGTP, dTTP). One μl reverse transcriptase (200U) was added and the reaction was carried out for one hour at 42° C. The reaction was terminated by incubation of the sample at 90° C. for five minutes and stored at −80° C.
Ten-fold serial dilutions of T cell cDNA in 10 mM TRIS, pH 7.5 were amplified using the standard kit and protocol recommended by Perkin Elmer-Cetus (Redwood City, Calif.). Each sample received 26.65 μl water, 5 μl ×PCR buffer, 8 μl of dNTP mix (1.25 mM each of dATP, dCTP, dGTP and dTTP), 0.1 μl alpha 32P-dCTP (3000 Ci/mmol), 0.25 μl AmpliTaq, 5 μl cDNA and 5 μl cytokine-specific 5′ and 3′ primers (20 micromolar). The primers used for most cytokines and the beta-actin control were purchased from Clontech (Redwood City, Calif.). The human IL-4 primers were purchased from Research Genetics (Huntsville, Ala.) and had the following sequences: 5′ hIL-4 primer (SEQ. ID. NO: 58):
The PCR products were extracted once with 25 μl chloroform and 25 μl of each sample were then electrophoresed on an 8% polyacrylamide gel at 250 V. The gel was dried and exposed to pre-flashed x-ray film. Several exposures of each gel were then scanned using a Shimadzu flying spot laser densitometer. Values on the linear portion of the titrations were then compared to the medium control values to obtain a stimulation index for each sample. Primers for beta-actin were included as a control for general cDNA levels in each sample. Where the medium control values are not detectable, the lowest measurable response was set at 1.00. In other experiments, levels of cytokine cDNA can be compared directly with previously amplified cytokine specific cDNAs as standards. Thus, absolute levels of particular cytokine cDNAs can be compared from one sample to another and from one experiment to another. In this experiment, IL-2, IL-4 and IFN-gamma levels were measured. As shown, in this particular cat-allergic patient, peptides such as Fel 18 generate more IL-4 than certain other TRFP-derived peptides (Fel 14 and Fel 17). This analysis will be expanded to studies of other cytokines involved in the generation of allergic responses, such as IL-5, IL-8, IL-9, TGF-beta. Samples of cDNA from each treatment can also be saved for later analysis once additional cytokines are identified and sequenced. Peptides generating a spectrum of cytokines favorable for the generation of allergic responses can be avoided for therapeutic use in the treatment of cat allergy. […]

[4] = Table 2, chain #1 TRFP peptides, average SI of responding patients multiplied by percent of patients with positive response (SI >2.5)
[5] = Table 2, chain #1 TRFP peptides, average cpm with antigen divided by cpm of T cells and APC alone, responding patients
[6] = patient 386, T cells primed with YZX
[7] = patient 522, T cells primed with YXZ
[8] = Table 3, chain #2 TRFP peptides
[9] = patient 522, T cells primed with native TRFP, SI 2.5 positive

Substance	PI [1, 4]	SI [1, 5]	PI [1, 8]	SI [1, 8]	further results
DVDLFLTGTPDEYVEQV [Fel 2, TRFP chain 1 amino acids 9-25]	416	7.3			T cell response [2, 6]: respond at a similar level or better; T cell response [2, 7]: respond at a similar level or better
Fel 33-3: TRFP chain 2 amino acids 26-40 (CPIFYDVFFAVANGN)			235	5.0	
Fel 33-1: TRFP chain 2 amino acids 26-36 (CPIFYDVFFAV)			340	5.4	
Fel 33-2: TRFP chain 2 amino acids 26-38 (CPIFYDVFFAVAN)			210	4.2	
Fel 4-2: TRFP chain 1 amino acids 37-49 (NARILKNCVDAKM; UniProt P30438 59-71, looked up, fragment)	378	6.2			
EITPAVKRDVDLFLTGT [Fel 1, TRFP chain 1 amino acids 1-17, amino acid 3 changed to T]	392	5.6			secondary T cell response of patient 131 [1]: respond
Fel 8: TRFP chain 1 amino acids 1-30 (EICPAVKRDVDLFLTGTPDEYVEQVAQYKA; UniProt P30438 23-52, looked up, fragment)					secondary T cell response of patient 131 [1]: respond
Fel 1-5: TRFP chain 1 amino acids 8-17 (RDVDLFLTGT; UniProt P30438 30-39, looked up, fragment)	286	5.2			
Fel 1-4: TRFP chain 1 amino acids 6-17 (VKRDVDLFLTGT; UniProt P30438 28-39, looked up, fragment)	816	9.6			
Fel 14-2: TRFP chain 1 amino acids 29-42 (KALPVVLENARILK; UniProt P30438 51-64, looked up, fragment)		4.6			T cell response [2, 6]: respond at a similar level or better; T cell response ([2]; patient 386, T cells primed with native TRFP): positively respond; T cell response [2, 7]: respond at a similar level or better; T cell response [2, 9]: positively respond
Fel 32-3: TRFP chain 2 amino acids 16-24 (QALGVKMAE)			270	3.7	
Fel 4-1: TRFP chain 1 amino acids 37-52 (NARILKNCVDAKMTEE; UniProt P30438 59-74, looked up, fragment)	822	9.9			
LLLDLSLTKVNATEPERTAMKKIQDC [Fel 18, TRFP chain 2 amino acids 23-48]			466	6.3	RATIO IFN/IL-4 [3]: 0.5; RATIO IL-2/IL-4 [3]: 0.4; STIMULATION INDEX IFN-γ ([3]; PCR, vs medium control): 5.6; STIMULATION INDEX IL-2 ([3]; PCR, vs medium control): 4.6; STIMULATION INDEX IL-4 ([3]; PCR, vs medium control): 12.0; T cell response [2, 7]: respond at a similar level or better
Fel 14-3: TRFP chain 1 amino acids 25-36 (VAQYKALPVVLE; UniProt P30438 47-58, looked up, fragment)	621	6.9			
Fel 16: TRFP chain 2 amino acids 1-22 (DTMRGALLVLALLVTQALGVKM)			283	5.9	
Fel 17: TRFP chain 2 amino acids 12-33 (LLVTQALGVKMAETCPIFYDVF)					T cell response [2, 6]: respond at a similar level or better; T cell response ([2]; patient 519, cells primed with peptide YXZ): positive responses; T cell response [2, 7]: respond at a similar level or better; T cell response [2, 9]: positively respond
